Data set [1] is described as follows: Active oxygen generation, singlet oxygen sensor green (SOSG), 670 nm laser. The following applies: for singlet oxygen generation: 670 nm laser, 20 mW/cm^2. As to the method: A singlet oxygen sensor green (SOSG) capable of detecting singlet oxygen was used to confirm the generation of active oxygen in particles of a pH-sensitive photodynamic therapeutic agent prepared in the above Example 5.
Specifically, 1 ml of a solution in which SOSG was dissolved and 1 ml of a solution in which a pH-sensitive carbon nanoparticle-based photodynamic therapeutic agent was dissolved were mixed, and a 670 nm laser was irradiated. The laser was irradiated with an energy of 20 mW/cm^2, and the fluorescence intensity was measured using a fluorescence spectrophotometer every 10 seconds (0.2 J/cm^2) to confirm the generation of active oxygen. In addition, in order to measure the efficiency of generating reactive oxygen species according to pH, 1 ml of a solution in which a pH-sensitive photodynamic therapeutic agent having pH 7.4, the pH in vivo and a pH of 6.5 in a cancer environment, was dissolved and 1 ml of a SOSG solution were mixed, and a 670 nm laser is irradiated. The laser was irradiated with an energy of 50 mW/cm^2, and the fluorescence intensity was measured using a fluorescence spectrophotometer every 10 seconds (0.5 J/cm^2) to confirm the generation of active oxygen species.

The conditions of data set [2]: cited from earlier work.
Data set [3] has as its system HCT-116 (Human colon cancer) cells. As to the kind of experiment: Inhibition of cancer growth in vivo, cancer tissue size for 15 days. The arrangement: species or system BALB/c mice. The conditions noted are these: intravenous, 2 mg/ml based on doxorubicin. Here is the method:
After that, the size of the cancer tissue was measured for 15 days to confirm the anticancer effect.

Data set [4] deals with HCT-116 (human colon cancer). As to the kind of experiment: Cancer cell killing, MTT assay at pH 7.4 and pH 6.5. The data set is classed as cell-based. The conditions noted are these: regardless of pH (7.4, 6.5). As to the method: (§1) In order to confirm the cancer cell killing effect of the CA and API-based pH-sensitive carbon nanoparticle drug carrier encapsulated with doxorubicin prepared in Example 4, HCT-116 (human colon cancer), SKBR-3 (human breast cancer), PANC-1 (human pancreas cancer) cells were used. The pH-sensitive carbon nanoparticle drug carrier was treated by concentration of doxorubicin in culture solutions of pH 7.4 and pH 6.5, respectively, and the comparison group was comparatively evaluated by treating doxorubicin alone by concentration. Cell death was performed using the MTT assay, and analyzed at 490 nm using a microplate reader.

The test system of data set [5] is PANC-1 (human pancreas cancer). The description is as above. The conditions noted are these: regardless of pH (7.4, 6.5). The data set is classed as cell-based. As to the method: as §1
Data set [6] relates to SKBR-3 (human breast cancer). The description is as above. The data set is classed as cell-based. The conditions noted are these: regardless of pH (7.4, 6.5). Here is the method:
as §1

The subject of data set [7] is CT-26 (Mouse colon cancer) cells. The data set can be described thus: Photodynamic cancer cell killing at pH 6.5, MTT assay. The following applies: pH 6.5, 1 μg/ml based on chlorine e6, 670 nm laser irradiated (+), 2 J/cm^2. Here is the method:
In order to confirm the cancer cell killing effect of the pH-sensitive photodynamic therapeutic agent prepared in the above Example 5 at a cancer environment pH of 6.5, CT-26 (Mouse colon cancer) cells were used. Samples of the pH-sensitive carbon nanoparticle-based photodynamic therapeutic agent and chlorine e6 alone as other comparative group and carbon nanoparticles without pH sensitivity (Comparative Example 1) were treated with 1 μg/ml based on the concentration of chlorine e6 in the pH 6.5 culture medium, equally and a 670 nm laser was irradiated thereto. The laser was irradiated for […] (2 J/cm^2) with an energy of 50 mW/cm^2. Cell death was performed using the MTT assay, and analyzed at 570 nm using a microplate reader.
A general note: Formazan colour is commonly taken as a measure of viable cells.

Data set [8] shares this test system. As to the kind of experiment: In vivo behavior, in vivo fluorescence imaging for 24 hours. The following applies: intravenous, 0.4 mg/ml based on chlorine e6, 24 hours. The arrangement: species or system BALB/c nude mice. As to the method:
In order to confirm the in vivo behavior of the pH-sensitive photodynamic therapeutic agent prepared in the above Example 5, CT-26 (Mouse colon cancer) cells were inoculated into BALB/c nude mice. When the size of the cancer tissue reaches about 50-100 mm^3, a pH-sensitive photodynamic therapeutic agent (Ce6@CDs) and chlorine e6 alone formulation (Free Ce6) as a comparative group were injected intravenously at 0.4 mg/ml based on chlorine e6, and for 24 hours after then, the in vivo behavior was confirmed using in vivo fluorescence imaging (fluorescence-labeled bioimaging instrument) hourly.

Data set [9] has the same test system. As to the kind of experiment: Intracellular influx according to pH, confocal microscopy. The data set is classed as cell-based. The following applies: pH 7.4, 4 hours. Here is the method: In order to confirm the influx effect into cancer cells at pH 7.4 and pH 6.5 using the pH-sensitive photodynamic therapeutic agent prepared in the above Example 5, CT-26 (Mouse colon cancer) cells were used. The pH-sensitive carbon nanoparticle-based photodynamic therapeutic agent was treated for 4 hours in the culture solutions of pH 7.4 and pH 6.5, respectively, and chlorine e6 was treated alone as a control group for comparative evaluation. The intracellular influx was analyzed by fluorescence (460, 665 nm) of carbon nanoparticles and chlorine e6 using confocal microscopy.

Data set [10] has the same test system. As to the kind of experiment: In vivo photodynamic anticancer and immune anticancer effect, both cancer tissues for 15 days. The arrangement: species or system BALB/c mice. The following applies: 0.4 mg/ml based on chlorine e6 i.v. An excerpt: In order to confirm the anticancer effect in vivo and the anticancer effect due to photodynamic-based immunity induction of the pH-sensitive photodynamic therapeutic agent prepared in the above Example 5, CT-26 (Mouse colon cancer) cells were inoculated subcutaneously in the left leg of BALB/c mice (1×10^6 cells) and the right leg (5×10^5 cells). When the size of the cancer tissue reaches about 50 mm^3, a pH-sensitive photodynamic therapeutic agent, chlorine e6 alone formulation as a comparative group, pH-sensitive carbon nanoparticles without drug encapsulation, and PBS were injected intravenously at 0.4 mg/ml based on chlorine e6, and after 24 hours after intravenous injection, only the left cancer tissue was irradiated with a laser. This was repeated twice, and the laser was irradiated for 1000 seconds (100 J/cm^2) with an energy of 100 mW/cm^2. By measuring the size of both cancer tissues for 15 days, the photodynamic anticancer effect and the resulting immune anti-cancer effect were confirmed.

In the case of pheophorbide a [Pheo A], the singlet oxygen generation result in [1] was “hardly produce singlet oxygen”.

Regarding `NCCCn1ccnc1` [API, 1-(3-aminopropyl) imidazole], the pKa value in data set [2] was 6.9.

As to `COc1cccc2c1C(=O)c1c(O)c3c(c(O)c1C2=O)C[C@@](O)(C(=O)CO)C[C@@H]3O[C@H]1C[C@H](N)[C@H](O)[C@H](C)O1` [Free DOX, doxorubicin], in data set [3], the “cancer growth in vivo” value is recorded as “cancer continued to grow”. Also, the “concentration at which cells died” value in data set [4], in data set [5] and in data set [6] was “about 50 ug/ml” each time.

For `C=Cc1c(C)c2cc3nc(c(CC(=O)O)c4[nH]c(cc5nc(cc1[nH]2)C(C)=C5CC)c(C)c4C(=O)O)[C@@H](CCC(=O)O)[C@@H]3C` [Free Ce6, chlorine e6], the cell death rate in data set [7] is listed as 50%. Further, in [8], the “in vivo fluorescence behavior” value is on record as “fluorescence quickly disappeared”. In data set [1], the singlet oxygen generation entry was “hardly produce singlet oxygen”. Further, the “singlet oxygen generation according to pH” value in [1] (pH 7.4 and pH 6.5, 670 nm laser, 50 mW/cm^2) is “hardly generated singlet oxygen”. For the same compound, the “degree of influx into cells” value in data set [9] is “similar”. In addition, the “cancer growth regardless of laser irradiation” value in data set [10] is listed as “cancer rapidly grows”.

(Values after patent US12409150B2, “pH-sensitive carbon nanoparticles, preparation method therefor, and drug delivery using same” (PCE Tech Co., Ltd., priority 2018, dated 2025).)
